{"source": "ChEMBL document CHEMBL3301470", "about": "“MMV Malaria Box screening against Plasmodium falciparum Deoxyhypusine hydroxylase” (2015)", "data": [{"target": "T1, Deoxyhypusine hydroxylase (Plasmodium falciparum (isolate 3D7)) (UniProt Q8I701)", "T1 sequence (whole entry)": "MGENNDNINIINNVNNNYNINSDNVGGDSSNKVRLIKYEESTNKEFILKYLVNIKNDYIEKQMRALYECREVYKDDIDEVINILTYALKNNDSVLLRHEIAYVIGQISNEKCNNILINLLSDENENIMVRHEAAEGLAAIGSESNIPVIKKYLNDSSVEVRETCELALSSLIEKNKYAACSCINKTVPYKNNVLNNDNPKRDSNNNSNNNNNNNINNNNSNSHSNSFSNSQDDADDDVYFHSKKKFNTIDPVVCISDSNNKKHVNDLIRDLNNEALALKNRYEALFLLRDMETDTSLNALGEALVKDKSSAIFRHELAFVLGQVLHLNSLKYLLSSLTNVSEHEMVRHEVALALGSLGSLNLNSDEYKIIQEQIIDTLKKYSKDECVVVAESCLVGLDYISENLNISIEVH", "assay": "MMV: Deoxyhypusine hydroxylase activity assay.", "settings": "concentration not given here", "units": {"inhibition": "%"}, "values": [{"smiles": "CCOc1ccc(-c2nonc2NC(=O)c2cccc(C)c2)cc1OCC", "inhibition": 43.3}, {"smiles": "c1ccc(Cn2c(N=Nc3c(Nc4ccccc4)ccc4ccccc34)nc3ccccc32)cc1", "inhibition": 35.9}, {"smiles": "COc1ccc(-c2nc3cc(Cc4ccc5[nH]c(-c6ccc(OC)cc6)nc5c4)ccc3[nH]2)cc1", "inhibition": 38.8}]}]}
